# In BindingDB's records for doi:10.7270/Q2MK6B9H (Nmmlsc, 2009):
# Molecular target: Ras-related protein Rab-7a (Canis lupus familiaris, UniProt P18067)
# Assay: inhibition of fluorescent GTP loading on Rab7 – biochemical, dog Rab7, bead multiplex flow cytometry, Bodipy-FL-GTP, pyrazoline series, SAR follow-up (AID 2041)
# Ras-related protein Rab-7a, sequence (P18067 whole entry): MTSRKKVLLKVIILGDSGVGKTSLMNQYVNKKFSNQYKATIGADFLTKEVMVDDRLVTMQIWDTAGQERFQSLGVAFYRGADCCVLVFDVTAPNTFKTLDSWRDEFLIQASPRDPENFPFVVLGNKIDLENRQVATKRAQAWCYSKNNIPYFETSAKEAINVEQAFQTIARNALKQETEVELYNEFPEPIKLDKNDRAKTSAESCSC
Structure (SMILES),EC50,EC50 (inactive by the depositor's call)
COc1ccc(C2CC(c3cccc(Br)c3)=NN2c2ccc(S(N)(=O)=O)cc2)cc1 (stereo unspecified) [UNM-0000306113],> 30 µM,
COc1ccc(C2CC(c3cccc(Cl)c3)=NN2c2ccc(S(N)(=O)=O)cc2)cc1 (stereo unspecified) [UNM-0000306134],,0.141 µM
COc1ccc(C2CC(c3ccc(Br)cc3)=NN2c2ccc(S(N)(=O)=O)cc2)cc1 (stereo unspecified) [UNM-0000306138],> 30 µM,
NS(=O)(=O)c1ccc(N2N=C(c3ccccc3)CC2c2cccc(Br)c2)cc1 (stereo unspecified) [UNM-0000306147],> 30 µM,
Cc1ccccc1C1CC(c2ccccc2)=NN1c1ccc(S(N)(=O)=O)cc1 (stereo unspecified) [UNM-0000306148],> 30 µM,
COc1ccc(C2CC(c3ccccc3C)=NN2c2ccc(S(N)(=O)=O)cc2)cc1 (stereo unspecified) [UNM-0000306152],> 30 µM,
COc1ccc(C2CC(c3cccc(C)c3)=NN2c2ccc(S(N)(=O)=O)cc2)cc1 (stereo unspecified) [UNM-0000306153],> 30 µM,
NS(=O)(=O)c1ccc(N2N=C(c3ccccc3)CC2c2ccc(Br)cc2)cc1 (stereo unspecified) [UNM-0000306160],> 30 µM,
NS(=O)(=O)c1ccc(N2N=C(c3ccccc3)CC2c2cccc(Cl)c2)cc1 (stereo unspecified) [UNM-0000306161],> 30 µM,

# Results, then the compound that gave them:
EC50,EC50 (inactive by the depositor's call),Structure (SMILES)
> 30 µM,,COc1ccc(C2=NN(c3ccc(Cl)cc3)C(c3ccccc3F)C2)cc1 (stereo unspecified) [UNM-0000305863]
> 30 µM,,COc1ccc(C2CC(c3ccc(F)cc3)=NN2c2ccccc2)cc1OC (stereo unspecified) [UNM-0000305864]
> 30 µM,,CN(C)c1ccc(C2CC(c3ccc(F)cc3)=NN2c2ccccc2)cc1 (stereo unspecified) [UNM-0000305866]
> 30 µM,,COc1ccc(C2CC(c3ccccc3)=NN2c2ccc(C(N)=O)cc2)cc1 (stereo unspecified) [UNM-0000305870]
> 30 µM,,COc1ccc(C2CC(c3ccccc3)=NN2c2ccc(C(=O)O)cc2)cc1 (stereo unspecified) [UNM-0000306085]
> 30 µM,,COc1ccc(C2CC(c3ccccc3F)=NN2c2ccc(S(N)(=O)=O)cc2)cc1 (stereo unspecified) [UNM-0000306110]
> 30 µM,,COc1ccc(C2CC(c3ccccc3Br)=NN2c2ccc(S(N)(=O)=O)cc2)cc1 (stereo unspecified) [UNM-0000306112]
